Measured values reported in paper PMC3701632, “Kinetic Features of L,D-Transpeptidase Inactivation Critical for β-Lactam Antibacterial Activity” (PLoS ONE, 2013).

Experiments:
[1] = molecular target: T1, Ldtfm catalytic domain (LdtfmC442A) (Enterococcus faecium, UniProt Q3Y185, C442A); experiment: biochemical
T1 construct: gene HMPREF0351_12555

[2] = test system: CC1(C)S[C@@H]2[C@H](NC(=O)[C@H](N)c3ccccc3)C(=O)N2[C@H]1C(=O)O; experiment: purified protein; assay type: biochemical, Enterococcus faecium; conditions: covalent acylenzyme turnover, saturable step assigned to oxyanion formation, 5 µM enzyme, 100 mM sodium phosphate pH 6.0, 20°C
[3] = test system: CO/N=C(\C(=O)N[C@@H]1C(=O)N2C(C(=O)O)=C(CSc3nc(=O)c(=O)[nH]n3C)CS[C@H]12)c1csc(N)n1; experiment: purified protein; assay type: biochemical, Enterococcus faecium; conditions: covalent acylenzyme turnover, saturable step assigned to oxyanion formation, 5 µM enzyme, 100 mM sodium phosphate pH 6.0, 20°C

T1 sequence (Q3Y185 341-466 C442A): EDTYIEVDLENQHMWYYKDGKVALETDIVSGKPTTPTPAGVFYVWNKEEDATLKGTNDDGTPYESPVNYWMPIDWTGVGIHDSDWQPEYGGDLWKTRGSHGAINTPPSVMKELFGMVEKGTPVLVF

Compound: CC1(C)S[C@@H]2[C@H](NC(=O)[C@H](N)c3ccccc3)C(=O)N2[C@H]1C(=O)O [ampicillin]
- Kd [1]: 79 mM

Compound: CO/N=C(\C(=O)N[C@@H]1C(=O)N2C(C(=O)O)=C(CSc3nc(=O)c(=O)[nH]n3C)CS[C@H]12)c1csc(N)n1 [ceftriaxone]
- Kd [1]: 44 mM

Compound: C[C@@H](O)[C@H]1C(=O)N2C(C(=O)O)=C(S[C@@H]3CN[C@H](C(=O)Nc4cccc(C(=O)O)c4)C3)[C@H](C)[C@H]12 [ertapenem]
- Kd [1]: 50 mM

Compound: Ldtfm (Enterococcus faecium DO)
- K0.5 [2]: 370 ± 30 µM
- kcat [2]: 0.003 ± 0.00017 s⁻¹
- kcat [3]: 0.00045 ± 5e-05 s⁻¹
